# Tests used:
# Mu-type opioid receptor = Mu-type opioid receptor (Rattus norvegicus, UniProt P33535); assay: Binding affinity against opioid receptor mu using [3H]-DAMGO as radioligand.
# [1] = Binding affinity against PCP receptor using [3H]TCP as radioligand.
# [2] = Ratio of binding affinities of pcp receptor(ki(nM)) to sigma opioid receptor(ki(nM))
# [3] = Binding affinity against sigma opioid receptor using [3H]pentazocine as radioligand.
# [4] = Binding affinity against sigma opioid receptor using [3H](+)-3-PPP as radioligand.
# Chain of Mu-type opioid receptor (P33535 whole entry): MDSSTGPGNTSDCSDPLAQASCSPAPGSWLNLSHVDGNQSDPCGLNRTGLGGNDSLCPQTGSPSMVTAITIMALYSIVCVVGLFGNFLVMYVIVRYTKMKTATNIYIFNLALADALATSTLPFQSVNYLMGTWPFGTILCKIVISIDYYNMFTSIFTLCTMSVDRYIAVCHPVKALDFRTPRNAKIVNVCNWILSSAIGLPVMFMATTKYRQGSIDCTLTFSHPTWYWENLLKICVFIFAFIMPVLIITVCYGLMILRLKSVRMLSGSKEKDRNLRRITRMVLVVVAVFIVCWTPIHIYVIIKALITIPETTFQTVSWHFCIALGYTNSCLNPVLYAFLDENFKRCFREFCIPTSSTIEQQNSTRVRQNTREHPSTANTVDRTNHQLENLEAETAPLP
Compound,Ki (Mu-type opioid receptor),Ki [1],Ratio [2],Ki [3],Ki [4]
C[C@@H]1[C@@H]2Cc3ccc(O)cc3[C@]1(C)CCN2,470 nM,30 nM,–,–,–
C=C[C@H](C)N1CC[C@]2(C)c3cc(O)ccc3C[C@@H]1[C@@H]2C,3 nM,2200 nM,–,–,–
C/C=C\CN1CC[C@@]2(C)c3cc(O)ccc3C[C@H]1[C@H]2C,1690 nM,381 nM,–,–,–
C[C@@H]1[C@@H]2Cc3ccc(O)cc3[C@@]1(C)CCN2CCc1ccccc1,55 nM,> 10000 nM,> 2560,3.9 nM,–
C[C@@H]1[C@@H]2Cc3ccc(O)cc3[C@]1(C)CCN2Cc1ccccc1,1610 nM,> 10000 nM,–,0.67 nM,–
C[C@@H]1[C@@H]2Cc3ccc(O)cc3[C@]1(C)CCN2CCCc1ccccc1,343 nM,9700 nM,8440,1.15 nM,–
CC(C)CCN1CC[C@@]2(C)c3cc(O)ccc3C[C@H]1[C@H]2C,3500 nM,> 10000 nM,> 4440,2.25 nM,–
CC(C)CCN1CC[C@]2(C)c3cc(O)ccc3C[C@@H]1[C@@H]2C,4.9 nM,2740 nM,313,8.74 nM,–
C[C@H]1[C@H]2Cc3ccc(O)cc3[C@@]1(C)CCN2C/C=C/Cl,1.5 nM,470 nM,1.2,403 nM,–
C=CCN1CC[C@@]2(C)c3cc(O)ccc3C[C@H]1[C@H]2C,> 10000 nM,225 nM,–,–,–
C[C@H]1[C@H]2Cc3ccc(O)cc3[C@@]1(C)CCN2,23 nM,197 nM,–,5580 nM,–
C[C@@H]1[C@@H]2Cc3ccc(O)cc3[C@]1(C)CCN2CCCCc1ccccc1,270 nM,> 10000 nM,3100,3.23 nM,–
C[C@H]1[C@H]2Cc3ccc(O)cc3[C@@]1(C)CCN2CCCCCc1ccccc1,68 nM,> 10000 nM,260,38.5 nM,–
C=C[C@H](C)N1CC[C@@]2(C)c3cc(O)ccc3C[C@H]1[C@H]2C,2270 nM,90 nM,–,–,159 nM
C[C@H]1[C@H]2Cc3ccc(O)cc3[C@]1(C)CCN2CCc1ccccc1,0.2 nM,1880 nM,30.5,61.7 nM,–
C[C@H]1[C@H]2Cc3ccc(O)cc3[C@@]1(C)CCN2CCCc1ccccc1,20 nM,3600 nM,93.3,38.6 nM,–
C=C[C@@H](C)N1CC[C@@]2(C)c3cc(O)ccc3C[C@H]1[C@H]2C,690 nM,200 nM,–,–,–

Compound,Ki (Mu-type opioid receptor),Ki [1],Ratio [2],Ki [3],Ki [4]
CC#CCN1CC[C@@]2(C)c3cc(O)ccc3C[C@H]1[C@H]2C,1000 nM,1230 nM,–,–,93.7 nM
C[C@@H]1[C@@H]2Cc3ccc(O)cc3[C@]1(C)CCN2CCCCCc1ccccc1,260 nM,> 10000 nM,> 3790,2.64 nM,–
CC(C)=CCN1CC[C@]2(C)c3cc(O)ccc3C[C@H]1[C@H]2C [(+)-PENTAZOCINE],–,4040 nM,1300,–,–
C=C[C@@H](C)N1CC[C@]2(C)c3cc(O)ccc3C[C@@H]1[C@@H]2C,5.9 nM,1900 nM,–,–,–
C=CCN1CC[C@]2(C)c3cc(O)ccc3C[C@@H]1[C@@H]2C,3.6 nM,504 nM,–,> 3000 nM,–
C[C@@H]1[C@@H]2Cc3ccc(O)cc3[C@]1(C)CCN2C/C=C/Cl,1980 nM,250 nM,24,10.5 nM,–
C[C@H]1[C@H]2Cc3ccc(O)cc3[C@@]1(C)CCN2Cc1ccccc1,97 nM,6500 nM,–,36.5 nM,–
CC(C)=CCN1CC[C@@]2(C)c3cc(O)ccc3C[C@@H]1[C@@H]2C,13 nM,842 nM,10.1,–,–
C/C=C\CN1CC[C@]2(C)c3cc(O)ccc3C[C@@H]1[C@@H]2C,11 nM,1120 nM,–,–,460 nM
C[C@@H]1[C@@H]2Cc3ccc(O)cc3[C@]1(C)CCN2C,4970 nM,41 nM,–,–,–
C[C@@H]1[C@@H]2Cc3ccc(O)cc3[C@@]1(C)CN2CC1CC1,1240 nM,153 nM,8.9,17.2 nM,–
C[C@H]1[C@H]2Cc3ccc(O)cc3[C@]1(C)CCN2CC1CC1 [CYCLAZOCINE],0.18 nM,107 nM,–,–,–
C[C@H]1[C@H]2Cc3ccc(O)cc3[C@@]1(C)CCN2C,11 nM,1190 nM,–,–,–
CC#CCN1CC[C@]2(C)c3cc(O)ccc3C[C@@H]1[C@@H]2C,5.1 nM,360 nM,–,–,–
C[C@H]1[C@H]2Cc3ccc(O)cc3[C@@]1(C)CCN2CCCCc1ccccc1,4 nM,5960 nM,70,85.2 nM,–
C/C=C/CN1CC[C@@]2(C)c3cc(O)ccc3C[C@H]1[C@H]2C,5620 nM,179 nM,–,–,52.5 nM
C/C=C/CN1CC[C@]2(C)c3cc(O)ccc3C[C@@H]1[C@@H]2C,9 nM,347 nM,–,–,–

# From ChEMBL document CHEMBL1125499, “Enantiomeric N-substituted N-normetazocines: a comparative study of affinities at sigma, PCP, and mu opioid receptors” (J Med Chem, 1992)
